{"source": "patent US8372799B2", "about": "“Reverse protein” (Apeptico Forschung und Entwicklung GmbH, priority 2007, dated 2013)", "note": "Where a SMILES comes first, the peptide text is derived from it. Bridges are numbered along the chain shown (N, C = ends)."}
{"biological_target": "T1, epithelial sodium channels (Homo sapiens, UniProt P37088+P51168+P51170)", "T1 construct": "endogenous in cells; host or cells: A549 human lung epithelial cells (ATCC CCL-185)", "T1 sequence (P37088 1-669)": "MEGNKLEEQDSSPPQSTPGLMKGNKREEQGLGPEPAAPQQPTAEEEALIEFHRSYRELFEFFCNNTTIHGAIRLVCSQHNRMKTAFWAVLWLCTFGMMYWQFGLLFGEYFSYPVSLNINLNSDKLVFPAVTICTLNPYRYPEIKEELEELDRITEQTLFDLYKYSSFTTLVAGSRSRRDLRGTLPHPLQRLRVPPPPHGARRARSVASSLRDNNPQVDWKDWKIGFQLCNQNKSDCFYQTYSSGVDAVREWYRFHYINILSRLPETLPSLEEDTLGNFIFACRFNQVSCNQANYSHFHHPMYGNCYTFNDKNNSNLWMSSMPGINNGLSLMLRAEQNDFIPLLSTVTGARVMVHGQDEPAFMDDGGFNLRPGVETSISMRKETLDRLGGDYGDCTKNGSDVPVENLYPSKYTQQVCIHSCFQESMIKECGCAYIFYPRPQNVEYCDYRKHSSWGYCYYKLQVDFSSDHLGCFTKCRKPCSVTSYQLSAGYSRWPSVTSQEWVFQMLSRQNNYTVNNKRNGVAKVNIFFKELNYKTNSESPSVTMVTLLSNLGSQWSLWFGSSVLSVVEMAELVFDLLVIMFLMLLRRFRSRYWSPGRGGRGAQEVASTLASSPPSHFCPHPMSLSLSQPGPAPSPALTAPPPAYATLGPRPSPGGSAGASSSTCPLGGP", "T1 sequence (P51168 1-640)": "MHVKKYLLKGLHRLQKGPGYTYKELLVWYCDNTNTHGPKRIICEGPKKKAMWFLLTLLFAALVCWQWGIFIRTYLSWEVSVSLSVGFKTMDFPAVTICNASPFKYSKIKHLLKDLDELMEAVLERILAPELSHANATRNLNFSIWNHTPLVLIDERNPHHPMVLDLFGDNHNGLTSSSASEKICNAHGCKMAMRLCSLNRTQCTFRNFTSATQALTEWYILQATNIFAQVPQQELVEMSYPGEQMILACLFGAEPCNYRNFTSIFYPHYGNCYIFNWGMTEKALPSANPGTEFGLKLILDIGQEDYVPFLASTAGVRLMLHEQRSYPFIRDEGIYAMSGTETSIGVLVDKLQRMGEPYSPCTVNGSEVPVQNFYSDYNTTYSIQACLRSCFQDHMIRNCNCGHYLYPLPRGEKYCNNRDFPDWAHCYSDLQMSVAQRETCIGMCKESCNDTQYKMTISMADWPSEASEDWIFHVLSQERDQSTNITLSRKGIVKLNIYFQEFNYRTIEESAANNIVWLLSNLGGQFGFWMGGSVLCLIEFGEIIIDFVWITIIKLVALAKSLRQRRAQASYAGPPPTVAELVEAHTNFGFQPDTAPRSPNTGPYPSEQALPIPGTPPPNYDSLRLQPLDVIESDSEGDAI", "T1 sequence (P51170 1-649)": "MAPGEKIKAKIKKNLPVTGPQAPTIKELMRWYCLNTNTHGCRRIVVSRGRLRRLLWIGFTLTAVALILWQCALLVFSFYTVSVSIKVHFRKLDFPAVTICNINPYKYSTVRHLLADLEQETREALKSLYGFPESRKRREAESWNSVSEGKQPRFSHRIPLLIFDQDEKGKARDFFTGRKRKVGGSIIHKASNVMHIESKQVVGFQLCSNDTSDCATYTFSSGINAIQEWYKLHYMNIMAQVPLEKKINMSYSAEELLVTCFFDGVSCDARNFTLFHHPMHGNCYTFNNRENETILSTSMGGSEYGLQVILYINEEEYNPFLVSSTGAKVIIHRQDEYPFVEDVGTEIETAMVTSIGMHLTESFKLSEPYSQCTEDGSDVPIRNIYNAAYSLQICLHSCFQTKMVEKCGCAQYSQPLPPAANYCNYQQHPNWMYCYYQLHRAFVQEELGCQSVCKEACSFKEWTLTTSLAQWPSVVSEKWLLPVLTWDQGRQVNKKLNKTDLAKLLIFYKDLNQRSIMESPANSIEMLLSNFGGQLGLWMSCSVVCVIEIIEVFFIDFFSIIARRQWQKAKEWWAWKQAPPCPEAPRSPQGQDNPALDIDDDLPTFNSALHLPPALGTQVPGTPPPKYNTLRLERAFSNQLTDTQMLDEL", "assay": "Patch-clamp activation of sodium ion channels in A549 cells", "type": "cell-based", "details": "whole cell / cell-attached, amiloride-sensitive sodium current", "description": "Furthermore, a method common in laboratories is to detect the activation of ion channels by means of patch-clamp experiments, and this is described, for example, in Clunes M. T. et al, J Physiol Volume 557, No. 3, 809-819 (Jun. 15, 2004). For patch-clamp examinations of ion channels, a glass cannula is stretched thin and filled with a neutral buffer solution. The glass cannula (patch-clamp pipette) is carefully pressed onto an intact epithelial cell. A piece of membrane is located below the pipette. An electrical resistance is thereby produced between the interior of the pipette and the external solution. An electrode attached to a sensitive amplifier dips into the pipette solution.\nThe electrophysiological experiments were performed on human A549 cells (ATTC No. CCL-185). A549 cells are human lung epithelial cells which are involved in the diffusion of water and electrolytes in the lungs.\nThe cells were suspended in DMEM-F-12 medium with 1% penicillin-streptomycin and 10% fetal calf serum, transferred into plastic cell culture vessels and cultivated in the incubator with 95% air and 5% CO2 at 37° C. The medium was changed 2 to 3 times per week. The cells double within approx. 22 hours and a cell concentration of more than 7×10^4 cells per cm^2 was not exceeded.\nMacroscopic currents and single-channel currents were discharged from A549 cells in the “whole cell” and “cell-attached” configuration of the “patch-clamp” technique (Hamill et al, Pflugers Arch. 1981, 391(2):85-100, 1981). For the current dissipations in the “whole cell” configuration, the following bath and electrode solutions were used:\nBath solution: 135 mM sodium methane sulfonate, 10 mM NaCl, 2.7 mM KCl, 1.8 mM CaCl2, 2 mM MgCl2, 5.5 mM glucose, and 10 mM HEPES, pH 7.4. […]\nThe cover slips with the cells cultivated thereon were transferred into a test bath with a capacity of 1 ml, fixed on the microscope table (Axiovert 100, 400-fold magnification), and the cells were superfused with the above-described bath solution. […] In the “cell-attached” configuration, the current can be measured through individual ion channels beneath the electrode tip. In the “whole cell” configuration, the membrane was penetrated beneath the electrode tip so that the current flowing through all ion channels of the cell could be measured. […] Upon obtaining a Gigaohm seal, a defined membrane retaining potential was applied via a pre-amplifier (CV-4 Headstage, Axon Instruments) and an amplifier (Axopatch 1D, Axon Instr.) and the current thereby flowing through the ion channels was measured.\nThe pulse protocol consisted of a hyperpolarization to −100 mV for 1 s at an interval of 5 s. […] The current dissipations thus obtained were stored and analyzed by means of the program PCLAMP 6.0. […]"}
{"molecule": "CC[C@H](C)[C@H](NC(=O)[C@H](C)N)C(=O)N[C@@H](CCCCN)C(=O)N[C@@H](CO)C(=O)N1CCC[C@H]1C(=O)N[C@H]1CSSC[C@@H](C(=O)N2CCC[C@H]2C(=O)N[C@@H](CO)C(=O)N[C@H](C(=O)N[C@@H](Cc2c[nH]cn2)C(=O)N[C@H](C(=O)O)C(C)C)[C@@H](C)O)NC(=O)CNC(=O)CNC(=O)[C@H](CCCCN)NC(=O)[C@H](C)NC(=O)[C@H](CCC(=O)O)NC(=O)[C@H](C)NC(=O)CNC(=O)[C@H](CCC(=O)O)NC(=O)[C@@H]2CCCN2C(=O)[C@H]([C@@H](C)O)NC(=O)[C@H](CCC(=O)O)NC(=O)[C@H](CCCNC(=N)N)NC(=O)[C@H](CCC(N)=O)NC1=O", "note": "[SEQ ID NO:1] (H-AIKSPCQRETPEGAEAKGGCPSTHV-OH; disulfide 6-20)", "activation of the sodium ion channels (patch clamp)": "activation of the sodium ion channels"}
{"molecule": "C[C@@H]1NC(=O)CNC(=O)[C@H](CCC(=O)O)NC(=O)[C@@H]2CCCN2C(=O)[C@H]([C@@H](C)O)NC(=O)[C@H](CCC(=O)O)NC(=O)[C@H](CCCNC(=N)N)NC(=O)[C@H](CCC(N)=O)NC(=O)[C@@H](NC(=O)[C@@H]2CCCN2C(=O)[C@H](CO)NC(=O)[C@@H](N)CCCCN)CSSC[C@@H](C(=O)N2CCC[C@H]2C(=O)N[C@@H](CO)C(=O)O)NC(=O)CNC(=O)CNC(=O)[C@H](CCCCN)NC(=O)[C@H](C)NC(=O)[C@H](CCC(=O)O)NC1=O", "note": "[SEQ ID NO:2] (H-KSPCQRETPEGAEAKGGCPS-OH; disulfide 4-18)", "activation of the sodium ion channels (patch clamp)": "activation of the sodium ion channels"}
{"molecule": "C[C@@H]1NC(=O)CNC(=O)[C@H](CCC(=O)O)NC(=O)[C@@H]2CCCN2C(=O)[C@H]([C@@H](C)O)NC(=O)[C@H](CCC(=O)O)NC(=O)[C@H](CCCNC(=N)N)NC(=O)[C@H](CCC(N)=O)NC(=O)[C@@H](N)CSSC[C@@H](C(=O)O)NC(=O)CNC(=O)CNC(=O)[C@H](CCCCN)NC(=O)[C@H](C)NC(=O)[C@H](CCC(=O)O)NC1=O", "note": "[SEQ ID NO:3, (NH2)Cys-Gln-Arg-Glu-Thr-Pro-Glu-Gly-Ala-Glu-Ala-Lys-Gly-Gly-Cys(COOH)] (H-CQRETPEGAEAKGGC-OH; disulfide 1-15)", "activation of the sodium ion channels (patch clamp)": "activation of the sodium ion channels"}
